Data on seven compounds can be found in US7629453B2, “NF-κB activating gene” (Asahi Kasei Pharma Corporation, priority 2000, dated 2009).

Strand notation (5' to 3'): a small letter for the sugar, then the base; units joined by * are phosphorothioate-linked, units joined directly phosphodiester-linked; [ ] holds rarer units or linkages, { } end groups; capitals alone tell only the bases. Where a SMILES comes first, the peptide text is derived from it. The star is where a group is joined. Cbz = O=C(OCc1ccccc1)*; d = 2'-deoxy (DNA); r = 2'-OH (RNA)

Common to all, as to assay type: cell-based
Data set [1] deals with gene of SEQ ID NO:88. Nature of the data set: Expression inhibition of the gene of SEQ ID NO:88 by double stranded nucleic acid (NF-κB luciferase reporter, EBNA cells). The note with it: Lipofectamine 2000, versus cells without double stranded nucleic acid. In general terms: In a reporter assay the amount or activity of a reporter protein is the signal.
Data set [2] relates to gene of SEQ ID NO:88. The data set is described as above. The note with it: for relative luciferase activity (%): 10 pmol per well, 24 hours, firefly standardized with Renilla, control without double stranded nucleic acid = 100%; for luciferase activity / expression of the protein of SEQ ID NO: 87 (in words): EBNA cells, Lipofectamine 2000, versus cells without double stranded nucleic acid. The procedure: That is, using Lipofectamine 2000 (Invitrogen), an expression vector having the polynucleotide of SEQ ID NO:88, pNFkB-Luc, phRL-TK vector and double stranded nucleic acid (A) were co-transfected into EBNA cells, and after culturing, luciferase activity was measured.
EBNA cells (Invitrogen) were inoculated on DMEM medium containing 5% FBS in a 96-well cell culture plate to a cell density of 1.2×10^4 cells/100 μl/well, and cultured for 24 hours at 37° C. in the presence of 5% CO2. Next, using Lipofectamine 2000 (Invitrogen), 50 ng of an expression vector having the polynucleotide of SEQ ID NO:88 and 50 ng of pNFkB-Luc (STRATAGENE) and 10 ng of phRL-TK vector (Promega Corporation) used as an internal standard, were co-transfected with double stranded nucleic acid 88-1 (10 pmol) prepared in (1) above into 1 well. After culturing for 24 hours at 37° C., firefly luciferase activity and Renilla reniformis luciferase activity were measured using a Dual-Luciferase Reporter Assay System (Promega Corporation). Further, each of 88-2 (10 pmol), 88-3 (10 pmol), 88-4 (10 pmol), 88-5 (10 pmol) or 88-6 (10 pmol) was co-transfected into 1 well in place of 88-1 (10 pmol), and luciferase activity was measured in the same manner. In Table 1, values for activity represent relative values when firefly luciferase activity in the control experiment (cells into which double stranded nucleic acid has not been introduced) is established as 100%. (It should be noted that values for firefly luciferase activity were standardized with values for Renilla reniformis luciferase activity used as an internal standard, before using these values in calculations.)

For another data set, the system named is NF-κB activation. Nature of the data set: NF-κB reporter activity inhibition by proteasome inhibitor in 293-EBNA cells cotransfected with NF-κB activating protein expression vector and pNFκB-Luc. The note with it: MG-132 0.1, 0.5, 1.0 and 10 μM added 1 hour after transfection; 293-EBNA cells with vector for protein of SEQ ID NO: 5, 9, 17 ... 178; 24 hours. On the procedure:
293-EBNA cells were seeded on 5% FBS containing DMEM medium in a 96-well cell culture plate to a final cell density of 1×10^4 cells/100 μl/well, and cultured for 24 hours at 37° C. in the presence of 5% CO2. Then, 50 ng of the expression vector comprising the gene encoding NF-κB activating protein of SEQ ID NO: 5, 9, 17, 21, 35, 37, 41, 53, 57, 63, 67, 71, 75, 81, 87, 91, 93, 97, 121, 123, 129, 154, 158, 162, 168, 170, 172, 176 or 178, and 50 ng of the reporter plasmid pNF κB-Luc were cotransfected into the cells in a well using FuGENE 6. After 1 hour, the proteasome inhibitor MG-132 (purchased form CALBIOCHEM) (Uehara T. et al., J. Biol. Chem. 274, p. 15875-15882 (1999); Wang X. C. et al., Invest. Ophathalmol. Vis. Sci. 40, p. 477-486) was added to the culture to final concentrations of 0.1 μM, 0.5 μM, 1.0 μM and 10 μM, respectively. After 24 hours of culture at 37° C., the reporter activity was measured using PIKKA GENE LT2.0.

On to “88-6: double stranded nucleic acid annealed from oligonucleotides A6 (SEQ ID NO: 195) and B6 (SEQ ID NO: 196) (chain 1 GAUGACUUUGGUAUCAAACTT; chain 2 GUUUGAUACCAAAGUCAUCTT; siRNA; sugars from the 5' end r19 d2, backbone not given here)”, for which, in the data set on gene of SEQ ID NO:88 [1] (listed as (F)), the “luciferase activity / expression of the protein of SEQ ID NO: 87 (in words)” value is on record as “similarly inhibited”. Also, in the data set on gene of SEQ ID NO:88 [2], the “relative luciferase activity (%)” value is given as 7% and the “luciferase activity / expression of the protein of SEQ ID NO: 87 (in words)” value was “exhibited inhibition of firefly luciferase activity”.

In the case of “88-5: double stranded nucleic acid annealed from oligonucleotides A5 (SEQ ID NO: 193) and B5 (SEQ ID NO: 194) (chain 1 GCCCUCAGAGUCCAGAAUCTT; chain 2 GAUUCUGGACUCUGAGGGCTT; siRNA; sugars from the 5' end r19 d2, backbone not given here)”, the “luciferase activity / expression of the protein of SEQ ID NO: 87 (in words)” value in the data set with gene of SEQ ID NO:88 [1] is on record as “similarly inhibited”. Moreover, in the data set with gene of SEQ ID NO:88 [2], the “relative luciferase activity (%)” value was determined as 5% and the “luciferase activity / expression of the protein of SEQ ID NO: 87 (in words)” value is reported as “exhibited inhibition of firefly luciferase activity”.

For “88-1: double stranded nucleic acid annealed from oligonucleotides A1 (SEQ ID NO: 185) and B1 (SEQ ID NO: 186), targeting SEQ ID NO: 88 (chain 1 rGrUrCrCrArGrGrArUrArUrCrArUrGrArGrUrCdTdT; chain 2 rGrArCrUrCrArUrGrArUrArUrCrCrUrGrGrArCdTdT; siRNA)”, in the data set with gene of SEQ ID NO:88 [1], the “luciferase activity / expression of the protein of SEQ ID NO: 87 (in words)” value is given as “markedly lower”. Also, in the data set with gene of SEQ ID NO:88 [2], the “relative luciferase activity (%)” value was determined as 18% and the “luciferase activity / expression of the protein of SEQ ID NO: 87 (in words)” value is “exhibited inhibition of firefly luciferase activity”.

As for `CC(C)C[C@@H](C=O)NC(=O)[C@H](CC(C)C)NC(=O)[C@H](CC(C)C)NC(=O)OCc1ccccc1` [MG132, MG-132] (Cbz-Leu-Leu-Leu-aldehyde), in the data set with NF-κB activation, the “expression of the reporter gene (NF-κB reporter activity)” value is given as “inhibited the expression of the reporter gene”.

Take “88-4: double stranded nucleic acid annealed from oligonucleotides A4 (SEQ ID NO: 191) and B4 (SEQ ID NO: 192) (chain 1 rGrArUrGrArCrArCrArGrArUrGrArArGrCrCrCdTdT; chain 2 rGrGrGrCrUrUrCrArUrCrUrGrUrGrUrCrArUrCdTdT; siRNA)”: the “luciferase activity / expression of the protein of SEQ ID NO: 87 (in words)” value in the data set with gene of SEQ ID NO:88 [1] (listed as (D)) was “similarly inhibited”; with gene of SEQ ID NO:88 [2], “exhibited inhibition of firefly luciferase activity”. For the same compound, the “relative luciferase activity (%)” value with gene of SEQ ID NO:88 [2] came to 8%.

As to “88-3: double stranded nucleic acid annealed from oligonucleotides A3 (SEQ ID NO: 189) and B3 (SEQ ID NO: 190) (chain 1 rGrCrUrGrArArGrArArGrArGrGrUrGrUrUrCrCdTdT; chain 2 rGrGrArArCrArCrCrUrCrUrUrCrUrUrCrArGrCdTdT; siRNA)”, the “luciferase activity / expression of the protein of SEQ ID NO: 87 (in words)” value with gene of SEQ ID NO:88 [1] (listed as (C)) is listed as “similarly inhibited”. In the data set on gene of SEQ ID NO:88 [2], the “relative luciferase activity (%)” value was 9% and the “luciferase activity / expression of the protein of SEQ ID NO: 87 (in words)” value is on record as “exhibited inhibition of firefly luciferase activity”.

For the compound “88-2: double stranded nucleic acid annealed from oligonucleotides A2 (SEQ ID NO: 187) and B2 (SEQ ID NO: 188) (chain 1 rGrArArGrUrCrUrGrArArGrArUrCrUrArUrCrCdTdT; chain 2 rGrGrArUrArGrArUrCrUrUrCrArGrArCrUrUrCdTdT; siRNA)”, in the data set with gene of SEQ ID NO:88 [1] (listed as (B)), the “luciferase activity / expression of the protein of SEQ ID NO: 87 (in words)” value is given as “similarly inhibited”. In the data set with gene of SEQ ID NO:88 [2], the “relative luciferase activity (%)” value was 12% and the “luciferase activity / expression of the protein of SEQ ID NO: 87 (in words)” value is recorded as “exhibited inhibition of firefly luciferase activity”.
